# Experimental data as given in ChEMBL document CHEMBL1201862, “PubChem BioAssay data set” (2004).
#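 A five-concentration, 48-hour dose response in 96-well plates underlies each endpoint, interpolated linearly between surrounding concentrations. At the GI50, growth is halved.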 Calls of active or inactive are those of the source. No stated cut-off is given here; in the data, active = GI50 up to about 1.1 µM and inactive = higher.
# Columns and labels:
# Assay in all cases: NCI anticancer screen, dose series, 48 h
# RPMI-8226 = test system: RPMI-8226
# ACHN = test system: ACHN
# CAKI-1 = test system: CAKI-1
# 786-0 = test system: 786-0
# SK-OV-3 = test system: SK-OV-3
# SF-268 = test system: SF-268
# SK-MEL-28 = test system: SK-MEL-28
# HCT-15 = test system: HCT-15
# RXF 393 = test system: RXF 393
# HL-60 = test system: HL-60
# OVCAR-4 = test system: OVCAR-4
# SN12C = test system: SN12C
# HOP-92 = test system: HOP-92
# MDA-N = test system: MDA-N
# MDA-MB-231 = test system: MDA-MB-231
# LOX IMVI = test system: LOX IMVI
# PC-3 = test system: PC-3
# A498 = test system: A498
# EKVX = test system: EKVX
# MOLT-4 = test system: MOLT-4
SMILES,GI50 (RPMI-8226),GI50 (ACHN),GI50 (CAKI-1),GI50 (786-0),GI50 (SK-OV-3),GI50 (SF-268),GI50 (SK-MEL-28),GI50 (HCT-15),GI50 (RXF 393),GI50 (HL-60),GI50 (OVCAR-4),GI50 (SN12C),GI50 (HOP-92),GI50 (MDA-N),GI50 (MDA-MB-231),GI50 (LOX IMVI),GI50 (PC-3),GI50 (A498),GI50 (EKVX),GI50 (MOLT-4)
COc1cc(Nc2n[nH]c(NS(=O)(=O)c3cc(C)c(Cl)cc3S)n2)cc(OC)c1OC,> 100 µM (inactive),> 100 µM (inactive),> 100 µM (inactive),> 100 µM (inactive),> 100 µM (inactive),> 100 µM (inactive),> 100 µM (inactive),> 100 µM,> 100 µM (inactive),> 100 µM (inactive),> 100 µM (inactive),> 100 µM (inactive),> 100 µM (inactive),> 100 µM (inactive),> 100 µM (inactive),> 100 µM (inactive),> 100 µM (inactive),> 100 µM (inactive),> 100 µM (inactive),> 100 µM (inactive)
Sc1nc2c(c(-c3nc(S)nc4c3CCCCCCCCCC4)n1)CCCCCCCCCC2,–,> 100 µM (inactive),> 100 µM (inactive),> 100 µM (inactive),> 100 µM (inactive),> 100 µM (inactive),> 100 µM (inactive),> 100 µM,> 100 µM (inactive),> 100 µM (inactive),> 100 µM (inactive),> 100 µM (inactive),> 100 µM (inactive),> 100 µM (inactive),> 100 µM (inactive),> 100 µM (inactive),> 100 µM (inactive),> 100 µM (inactive),> 100 µM (inactive),> 100 µM (inactive)
Cc1ccc(C2(C)CC/C(=N/N=C3/CCC(C)(c4ccc(C)c(C)c4)c4cc(C)c(C)cc43)c3cc(C)c(C)cc32)cc1C (centres undefined),> 100 µM (inactive),> 100 µM (inactive),> 100 µM (inactive),> 100 µM (inactive),> 100 µM (inactive),> 100 µM (inactive),> 100 µM (inactive),> 100 µM,> 100 µM (inactive),> 100 µM (inactive),> 100 µM (inactive),> 100 µM (inactive),> 100 µM (inactive),> 100 µM (inactive),> 100 µM (inactive),> 100 µM (inactive),> 100 µM (inactive),> 100 µM (inactive),> 100 µM (inactive),> 100 µM (inactive)
COc1ccc2c(c1)CCCN1CCc3ccccc3C21 (centres undefined),–,47.3 µM (inactive),74.5 µM (inactive),26.6 µM (inactive),52.2 µM (inactive),39.9 µM (inactive),36.5 µM (inactive),30.5 µM,25.9 µM (inactive),17.1 µM (inactive),> 100 µM (inactive),23.3 µM (inactive),37.2 µM (inactive),18.9 µM (inactive),23.9 µM (inactive),32.5 µM (inactive),41.5 µM (inactive),55.3 µM (inactive),76.4 µM (inactive),80.4 µM (inactive)
O=c1[nH]c(NCc2cccnc2)nc2[nH]cnc12,> 100 µM (inactive),> 100 µM (inactive),> 100 µM (inactive),> 100 µM (inactive),> 100 µM (inactive),> 100 µM (inactive),–,> 100 µM,> 100 µM (inactive),–,> 100 µM (inactive),> 100 µM (inactive),> 100 µM (inactive),> 100 µM (inactive),> 100 µM (inactive),> 100 µM (inactive),> 100 µM (inactive),> 100 µM (inactive),> 100 µM (inactive),> 100 µM (inactive)
COC(=O)C(Cc1c[nH]c2ccccc12)NP(=O)(O)OCC1OC(n2cc(F)c(=O)[nH]c2=O)CC1O (centres undefined),31.3 µM (inactive),6.89 µM (inactive),–,28.2 µM (inactive),> 92.5 µM (inactive),4.94 µM (inactive),> 100 µM (inactive),> 100 µM,> 100 µM (inactive),40.9 µM (inactive),> 100 µM (inactive),> 64.4 µM (inactive),31.4 µM (inactive),> 100 µM (inactive),> 100 µM (inactive),18.2 µM (inactive),> 51.1 µM (inactive),0.964 µM (active),> 100 µM (inactive),10.1 µM (inactive)
CSC1=Nc2ccccc2-c2nc3ccccc3cc2C1,–,> 100 µM (inactive),> 100 µM (inactive),> 100 µM (inactive),> 100 µM (inactive),> 100 µM (inactive),> 100 µM (inactive),> 100 µM,> 100 µM (inactive),76 µM (inactive),> 100 µM (inactive),> 100 µM (inactive),> 100 µM (inactive),> 100 µM (inactive),> 100 µM (inactive),> 100 µM (inactive),> 100 µM (inactive),> 100 µM (inactive),> 100 µM (inactive),> 100 µM (inactive)
CCCCCCCC1C(C)c2c([nH]c3ccccc23)C2C(=O)N(c3ccc(OC)cc3)C(=O)C21 (centres undefined),> 5.73 µM (inactive),2.66 µM (inactive),3.26 µM (inactive),1.66 µM (inactive),4.68 µM (inactive),3.72 µM (inactive),5.48 µM (inactive),> 7.76 µM,2.79 µM (inactive),1.95 µM (inactive),2.9 µM (inactive),2.59 µM (inactive),> 10 µM (inactive),4.22 µM (inactive),3.82 µM (inactive),–,4.68 µM (inactive),2.67 µM (inactive),3.97 µM (inactive),3.2 µM (inactive)
c1ccc2c(C3CCN(CCN4CCOCC4)C3)c[nH]c2c1 (centres undefined),> 100 µM (inactive),> 100 µM (inactive),> 100 µM (inactive),> 100 µM (inactive),> 100 µM (inactive),> 100 µM (inactive),> 100 µM (inactive),> 100 µM,> 100 µM (inactive),> 100 µM (inactive),> 100 µM (inactive),> 100 µM (inactive),> 100 µM (inactive),> 100 µM (inactive),> 100 µM (inactive),> 100 µM (inactive),> 100 µM (inactive),> 100 µM (inactive),> 100 µM (inactive),–
COc1ccc2nc3n(c2c1)CCc1cc(OC)c(OC)cc1-3,–,81.5 µM (inactive),42.4 µM (inactive),49.8 µM (inactive),> 100 µM (inactive),> 100 µM (inactive),78 µM (inactive),33.5 µM,> 100 µM (inactive),44.6 µM (inactive),34.8 µM (inactive),63.1 µM (inactive),56 µM (inactive),44 µM (inactive),> 100 µM (inactive),45.8 µM (inactive),39.4 µM (inactive),68.7 µM (inactive),42.4 µM (inactive),–
Cc1cc2c3c(ccc4[nH]cc(c43)CN2c2ccc(NS(C)(=O)=O)cc2)n1,13.5 µM (inactive),70.3 µM (inactive),25.9 µM (inactive),11.4 µM (inactive),32.3 µM (inactive),3.28 µM (inactive),> 100 µM (inactive),> 100 µM,28.9 µM (inactive),28.1 µM (inactive),> 100 µM (inactive),–,24.5 µM (inactive),> 100 µM (inactive),22 µM (inactive),> 100 µM (inactive),> 100 µM (inactive),41.4 µM (inactive),26.8 µM (inactive),3.02 µM (inactive)
O=C1CC(Sc2nc3ccc(I)cc3c(=O)n2Cc2ccccc2)C(=O)NN1 (centres undefined),17 µM (inactive),16.6 µM (inactive),2.81 µM (inactive),15.1 µM (inactive),16 µM (inactive),15.9 µM (inactive),17.9 µM (inactive),15.5 µM,–,20 µM (inactive),17.4 µM (inactive),14.5 µM (inactive),17.7 µM (inactive),18 µM (inactive),15.6 µM (inactive),3.18 µM (inactive),17 µM (inactive),12.7 µM (inactive),15.8 µM (inactive),14.3 µM (inactive)
CCOc1cc2c(=O)oc3c(OC)ccc4ccc(c1OC)c2c43,–,37.4 µM (inactive),> 100 µM (inactive),36.5 µM (inactive),25.1 µM (inactive),> 100 µM (inactive),> 100 µM (inactive),> 100 µM,52.7 µM (inactive),> 100 µM (inactive),58.7 µM (inactive),> 100 µM (inactive),> 100 µM (inactive),> 100 µM (inactive),14.5 µM (inactive),> 100 µM (inactive),> 100 µM (inactive),> 100 µM (inactive),> 100 µM (inactive),> 100 µM (inactive)
CCOP(=O)(O)CN1CCNCCN(CP(=O)(O)OCC)CCNCC1,> 100 µM (inactive),> 100 µM (inactive),> 100 µM (inactive),> 100 µM (inactive),> 100 µM (inactive),–,> 100 µM (inactive),> 100 µM,> 100 µM (inactive),53 µM (inactive),> 100 µM (inactive),> 100 µM (inactive),> 100 µM (inactive),> 100 µM (inactive),> 100 µM (inactive),> 100 µM (inactive),> 100 µM (inactive),> 100 µM (inactive),> 100 µM (inactive),> 100 µM (inactive)
Cc1c(-c2ccccc2)[nH]n(C2=NCCN2)c1=O,> 100 µM (inactive),> 100 µM (inactive),> 100 µM (inactive),> 100 µM (inactive),> 100 µM (inactive),> 100 µM (inactive),–,> 100 µM,> 100 µM (inactive),88.5 µM (inactive),> 100 µM (inactive),–,> 100 µM (inactive),> 100 µM (inactive),> 100 µM (inactive),> 100 µM (inactive),> 100 µM (inactive),> 100 µM (inactive),> 100 µM (inactive),> 100 µM (inactive)
